Data published in ChEMBL document CHEMBL3046514, “Synthesis of novel cyclobutylphosphonic acids as inhibitors of imidazole glycerol phosphate dehydratase” (Tetrahedron, 1997).
pIC50: −log10 of the molar value.

Test: Inhibition of purified Triticum aestivum (wheat) germ imidazole glycerol phosphate dehydratase

pIC50 | Structure (SMILES)
5.00 | O=P(O)(O)[C@@H]1CCC[C@@](O)(c2nc[nH]n2)C1 (relative stereo)
7.40 | O=P(O)(O)[C@@H]1CCC[C@](O)(c2nc[nH]n2)C1 (relative stereo)

Further lines, the compound ahead of its results:

Structure (SMILES) | pIC50
O[C@@]1(c2nc[nH]n2)CCC[C@H](P(O)(O)=P)C1 | 5.74
O=P(O)(O)[C@@H]1CCC[C@](O)(c2nc[nH]n2)C1 | 7.74
O=P(O)(O)[C@H]1C[C@@](O)(c2nc[nH]n2)C1 | 3.57
